The target of data set [1] is T1, human PCSK9 (Homo sapiens, UniProt Q8NBP7).
T1 construct: biotinylated human PCSK9 (31-692)-Avi-His6; His6 (C)
In words: Assay 2 - Biophysical human PCSK9 assay (SPR, Biacore). In kind it is binding. The note with it: geometric mean; SPR at 30° C; read-out: Assay 2 (PCSK9 BIAcore DBA CR) GMean Kd. On the procedure: Assay 2—Biophysical Human PCSK9 Assay
The SPR binding experiments were performed on a Biacore S200 optical biosensor unit at 30° C. A Series S Sensor Chip SA that is designed to bind biotinylated molecules for interaction analysis in Biacore systems was equilibrated at room temperature prior to use. The running buffer for protein tethering and subsequent ligand binding experiments was 10 mM HEPES pH 7.4, 150 mM NaCl, 0.05% (v/v) Tween 20 pH 7.4.
For the surface tethering of PCSK9, biotinylated human PCSK9 (31-692)-Avi-His6 at a concentration of 0.5 mg/mL was used. Prior to the surface tethering, the surface was exposed to a solution of 50 mM NaOH, 500 mM NaCl via 3 consecutive injections of this solution with a contact time of 60 s and a flowrate of 10 μL min^−1 to remove non-conjugated streptavidin. The PCSK9 protein was diluted to a concentration of 20 μg/mL using running buffer and injected with a contact time of 180-300 s and a flowrate of 10 μL min^−1 over a single flow channel (typically flow channel 2 or flow channel 4) with the aim to achieve protein capture levels of >5000 response units (RU). Remaining biotin binding sites were blocked via 2 consecutive injections of a 10 μM D-biotin solution in running buffer with a contact time of 60 s and a flowrate of 10 μL min^−1 over all flow-channels. Flow-channels 1 and 3 typically served as a reference surface throughout the subsequent binding experiments.
The binding experiments were all performed at a flow rate of 30 PL min^−1 and by employing the method of single-cycle kinetics. This approach involves the sequential injection of a compound concentration series without regeneration steps. A contact time between 90-150 s was selected, which was followed by a 40 min dissociation phase to allow for a proper estimation of the dissociation rate constant. Test compounds were delivered in DMSO at a concentration of 10 mM and a digital dispenser HP D300 was used to set up the compound concentration series using 6 concentrations. The tested concentrations have been 30, 100, 300, 1000, 3000 and 10000 nM. Prior to injecting any compound, the surfaces were equilibrated by injecting running buffer over them in three separate pulses. The data collection rate was set to 10 Hz.
The raw sensorgrams of the compound injections were first subjected to reference subtraction (subtracting the signal from flow channel 1 and/or 3 from the signal from channels 2 and/or 4 respectively) and then blank subtraction (subtracting the signal from injecting DMSO controls from the reference subtracted data). The resulting double-referenced sensorgrams were then fitted using a 1:1 binding interaction model using the manufactures software package to extract kinetic- and affinity data. Active compounds have been defined by creating a detectable binding signal at the highest compound concentration ([…]) of 3 RUs. Kinetic- and affinity data on active compounds are only provided for those compounds where the binding signal at the highest compound concentration ([…]) is 50% of the theoretical maximum binding signal for a 1:1 binding interaction (Rmax, typically between 15-20 RUs) in order to enable a proper fitting of the data.

In data set [2] the target is T2, hERG potassium ion channel (Homo sapiens, UniProt Q12809).
T2 construct: expressed in transfected cells; host or cells: Chinese hamster ovary K1 (CHO)
Briefly: Assay 5 - hERG assay (SyncroPatch 384PE patch clamp, CHO cells). In kind it is cell-based. The conditions noted are these: human, CHO-K1 cells over-expressing hERG, pH 7.4, geometric mean, read-out: Assay 5 (hERG Hu CHO IF EPh CR-Syncro) GMean IC50. Put shortly:
(§1)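 Automated high-throughput patch clamp on CHO-K1 cells overexpressing hERG at room temperature, KF/KCl internal with escin, NMDG-containing external at pH 7.4. Six-point cumulative compound addition, 0.33% DMSO final; wells kept only with seal >30 MΩ, Z′ >0.4 and current >0.2 nA.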

The target of data set [3] is GSK3β (Glycogen synthase kinase-3 beta) (Homo sapiens, UniProt P49841). In words: Assay 6 - GSK3β assay (ThermoFisher Z-Lyte). In kind it is biochemical. The conditions noted are these: geometric mean; ATP Conc: 10 μM; read-out: Assay 6 (GSK3β FRET-Z-Lyte CR) GMean IC50 (μM) ATP Conc: 10. Put shortly:
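Z-Lyte fluorescence kinase assay with 0.22-0.92 ng GSK3β and 2 μM Ser/Thr 09 peptide in 50 mM HEPES pH 7.5, 10 mM MgCl2, 1 mM EGTA, 0.01% BRIJ-35. Kinase reaction 60 min at room temperature, then 60 min development. 10-point 3-fold titration from 10 μM in 1% DMSO, fitted to a sigmoidal dose-response curve.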

Data set [4] has as its target PCSK9 (Homo sapiens, UniProt Q8NBP7, G670E/V474I). Briefly: biochemical.
Data set [5] addresses T3, potassium ion channel hERG (human Ether-á-go-go-Related Gene) (Homo sapiens, UniProt Q12809).
T3 construct: expressed in transfected cells; host or cells: Chinese hamster ovary K1 (CHO)
Briefly: Assay 5 - hERG assay (SyncroPatch 384PE patch clamp, CHO cells). The format is cell-based. The conditions noted are these: geometric mean; CHO cells over-expressing hERG; read-out: Assay 5 (hERG Hu CHO IF EPh CR-Syncro) GMean IC50. The gist of the method: as §1

The conditions of data set [6]: clinical trials, patients; alirocumab compared to placebo; cited from earlier work.

T3 sequence (Q12809 whole entry): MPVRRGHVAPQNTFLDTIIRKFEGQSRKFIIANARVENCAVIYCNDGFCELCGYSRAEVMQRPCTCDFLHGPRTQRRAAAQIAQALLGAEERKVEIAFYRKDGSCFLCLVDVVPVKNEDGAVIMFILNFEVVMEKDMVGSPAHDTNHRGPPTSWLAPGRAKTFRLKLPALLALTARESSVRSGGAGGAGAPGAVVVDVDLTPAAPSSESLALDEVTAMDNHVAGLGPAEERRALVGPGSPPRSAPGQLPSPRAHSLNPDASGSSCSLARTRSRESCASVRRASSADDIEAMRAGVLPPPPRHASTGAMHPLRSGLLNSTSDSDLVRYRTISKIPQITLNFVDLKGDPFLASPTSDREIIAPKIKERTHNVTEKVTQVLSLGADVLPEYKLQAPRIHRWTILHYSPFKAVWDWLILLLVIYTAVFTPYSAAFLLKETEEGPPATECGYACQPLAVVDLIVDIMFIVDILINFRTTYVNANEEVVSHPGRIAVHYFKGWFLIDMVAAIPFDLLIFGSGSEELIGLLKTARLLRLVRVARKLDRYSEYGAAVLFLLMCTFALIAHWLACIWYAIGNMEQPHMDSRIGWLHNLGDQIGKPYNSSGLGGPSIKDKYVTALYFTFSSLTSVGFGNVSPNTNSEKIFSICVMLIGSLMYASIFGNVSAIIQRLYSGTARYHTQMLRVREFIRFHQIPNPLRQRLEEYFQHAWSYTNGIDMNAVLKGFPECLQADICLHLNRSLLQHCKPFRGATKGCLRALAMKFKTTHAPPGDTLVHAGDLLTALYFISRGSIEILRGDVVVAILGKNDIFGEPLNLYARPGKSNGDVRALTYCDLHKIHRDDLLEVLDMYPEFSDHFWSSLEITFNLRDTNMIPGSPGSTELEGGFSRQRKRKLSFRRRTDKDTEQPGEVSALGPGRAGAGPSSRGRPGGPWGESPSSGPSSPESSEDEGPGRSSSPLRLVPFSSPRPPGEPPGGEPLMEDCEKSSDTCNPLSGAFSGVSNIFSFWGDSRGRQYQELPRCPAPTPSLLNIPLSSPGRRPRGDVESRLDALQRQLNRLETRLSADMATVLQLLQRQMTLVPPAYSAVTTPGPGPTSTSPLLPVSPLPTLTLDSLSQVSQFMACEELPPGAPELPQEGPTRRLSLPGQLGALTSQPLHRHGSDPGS
GSK3β (Glycogen synthase kinase-3 beta), sequence (P49841 whole entry): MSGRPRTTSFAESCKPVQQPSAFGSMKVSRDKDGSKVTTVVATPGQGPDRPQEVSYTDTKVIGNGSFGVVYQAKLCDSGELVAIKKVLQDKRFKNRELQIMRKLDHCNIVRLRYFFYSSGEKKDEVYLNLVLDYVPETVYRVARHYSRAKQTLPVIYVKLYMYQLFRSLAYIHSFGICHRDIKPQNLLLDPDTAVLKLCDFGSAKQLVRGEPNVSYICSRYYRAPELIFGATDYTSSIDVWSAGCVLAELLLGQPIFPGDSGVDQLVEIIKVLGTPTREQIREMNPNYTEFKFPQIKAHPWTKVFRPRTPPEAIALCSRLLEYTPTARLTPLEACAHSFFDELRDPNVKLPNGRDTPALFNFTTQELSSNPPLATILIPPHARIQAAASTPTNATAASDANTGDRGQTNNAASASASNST
T1 sequence (Q8NBP7 31-692): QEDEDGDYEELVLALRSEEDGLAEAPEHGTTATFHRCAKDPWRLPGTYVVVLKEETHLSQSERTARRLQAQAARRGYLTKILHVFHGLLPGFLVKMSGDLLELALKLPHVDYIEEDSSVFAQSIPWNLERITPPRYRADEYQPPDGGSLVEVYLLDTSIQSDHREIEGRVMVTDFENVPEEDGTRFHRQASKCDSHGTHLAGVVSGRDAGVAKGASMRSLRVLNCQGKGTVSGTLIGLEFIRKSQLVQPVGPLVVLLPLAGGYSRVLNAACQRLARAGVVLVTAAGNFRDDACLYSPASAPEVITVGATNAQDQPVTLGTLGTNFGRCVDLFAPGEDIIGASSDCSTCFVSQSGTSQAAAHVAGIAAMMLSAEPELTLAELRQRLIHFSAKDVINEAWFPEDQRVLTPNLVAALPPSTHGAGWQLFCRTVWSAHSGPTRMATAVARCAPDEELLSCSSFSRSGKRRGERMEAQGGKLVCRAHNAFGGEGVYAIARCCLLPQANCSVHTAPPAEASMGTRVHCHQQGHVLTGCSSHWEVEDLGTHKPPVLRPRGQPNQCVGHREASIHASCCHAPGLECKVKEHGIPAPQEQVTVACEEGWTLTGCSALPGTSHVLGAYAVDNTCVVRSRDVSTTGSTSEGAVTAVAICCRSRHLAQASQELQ
PCSK9, sequence (Q8NBP7 with tags, fused parts or gaps V474I/G670E): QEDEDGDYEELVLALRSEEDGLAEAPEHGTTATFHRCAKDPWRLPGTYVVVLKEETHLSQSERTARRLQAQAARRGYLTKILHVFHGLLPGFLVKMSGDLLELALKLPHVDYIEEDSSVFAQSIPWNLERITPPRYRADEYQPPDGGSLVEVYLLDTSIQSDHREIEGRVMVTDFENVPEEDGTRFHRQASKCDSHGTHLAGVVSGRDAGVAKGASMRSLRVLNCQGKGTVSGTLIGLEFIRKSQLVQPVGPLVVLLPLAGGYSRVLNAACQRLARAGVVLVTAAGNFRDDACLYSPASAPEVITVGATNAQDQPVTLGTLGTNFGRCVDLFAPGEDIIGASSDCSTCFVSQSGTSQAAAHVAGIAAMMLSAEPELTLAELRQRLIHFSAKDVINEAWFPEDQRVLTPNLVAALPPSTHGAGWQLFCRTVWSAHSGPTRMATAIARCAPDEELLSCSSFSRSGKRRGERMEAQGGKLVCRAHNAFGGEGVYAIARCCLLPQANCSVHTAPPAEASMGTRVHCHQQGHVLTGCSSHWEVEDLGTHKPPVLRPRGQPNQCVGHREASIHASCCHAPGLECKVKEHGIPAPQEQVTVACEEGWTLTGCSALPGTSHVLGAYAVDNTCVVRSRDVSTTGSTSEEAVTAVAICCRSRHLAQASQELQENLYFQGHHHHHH
T2 sequence (Q12809 whole entry): as the sequence (Q12809 whole entry) above

Regarding `Cc1nc(N[C@H]2CC[C@H](Nc3cnc(OC(F)F)cn3)C2)ccc1-n1ccccc1=O` [Example 97, 6′-(((1S,3S)-3-((5-(Difluoromethoxy)pyrazin-2-yl)amino)cyclopentyl)amino)-2′-methyl-2H-[1,3′-bipyridin]-2-one], in data set [1], the dissociation constant Kd worked out at 26 nM. Also, the IC50 in data set [2] was 35400 nM; in data set [3], greater than 10 µM; in data set [4], 63 nM.
In the case of `O=c1ccccn1-c1ccc(N[C@H]2CC[C@H](Nc3cnc4ccc(Cl)cc4n3)C2)nc1` [Example 139, 6′-(((1S,3S)-3-((7-Chloroquinoxalin-2-yl)amino)cyclopentyl)amino)-2H-[1,3′-bipyridin]-2-one], the Kd in data set [1] came out at 460 nM. In addition, the 50% inhibitory concentration (IC50) in data set [5] came to 4600 nM; in data set [3], 0.292 µM; in data set [4], 235 nM.
Consider `Cc1cncc(N[C@H]2CC[C@H](Nc3ccc(-n4ccccc4=O)cn3)C2)n1` [Example 141, 6′-(((1S,3S)-3-((6-Methylpyrazin-2-yl)amino)cyclopentyl)amino)-2H-[1,3′-bipyridin]-2-one], for which the dissociation constant (Kd) in data set [1] was determined as 405 nM. For the same compound, the IC50 was greater than 40000 nM in data set [5], greater than 10 µM in data set [3] and 592 nM in data set [4].
For `N#Cc1cncc(N[C@H]2CC[C@H](Nc3ccc(-n4ccccc4=O)cn3)C2)n1` [Example 142, 6-(((1S,3S)-3-((2-Oxo-2H-[1,3′-bipyridin]-6′-yl)amino)cyclopentyl)amino)pyrazine-2-carbonitrile] the same measures were 2420 nM, greater than 35400 nM, 0.764 µM and 1610 nM.
Turning to `O=c1ccccn1-c1ccc(N[C@H]2CC[C@H](Nc3cnc4cccnc4n3)C2)nc1` [Example 143, 6′-(((1S,3S)-3-(Pyrido[2,3-b]pyrazin-3-ylamino)cyclopentyl)amino)-2H-[1,3′-bipyridin]-2-one], the equilibrium dissociation constant (Kd) in data set [1] is 1540 nM. Moreover, the half-inhibitory concentration (IC50) in data set [5] was greater than 40000 nM; in data set [3] it was greater than 10 µM; in data set [4], 2390 nM.
The corresponding values for `COc1cccc2ncc(N[C@H]3CC[C@H](Nc4ccc(-n5ccccc5=O)cn4)C3)nc12` [Example 144, 6′-(((1S,3S)-3-((8-Methoxyquinoxalin-2-yl)amino)cyclopentyl)amino)-2H-[1,3′-bipyridin]-2-one] are 336 nM, greater than 35000 nM, 2.34 µM and 484 nM.
For `O=c1ccccn1-c1ccc(N[C@H]2CC[C@H](Nc3cnc4c(F)cccc4n3)C2)nc1` [Example 145, 6′-(((1S,3S)-3-((5-Fluoroquinoxalin-2-yl)amino)cyclopentyl)amino)-2H-[1,3′-bipyridin]-2-one] the same measures were 637 nM, 18500 nM, greater than 10 µM and 960 nM.
The corresponding values for `Nc1ccc2ncc(N[C@H]3CC[C@H](Nc4ccc(-n5ccccc5=O)cn4)C3)nc2n1` [Example 146, 6′-(((1S,3S)-3-((6-Aminopyrido[2,3-b]pyrazin-3-yl)amino)cyclopentyl)amino)-2H-[1,3′-bipyridin]-2-one] are 1500 nM, greater than 40000 nM, greater than 10 µM and 1480 nM.
As for `Cc1cnc(N[C@H]2CC[C@H](Nc3ccc(-n4nc(C)ccc4=O)cn3)C2)cn1` [Example 231, 6-Methyl-2-(6-(((1S,3S)-3-((5-methylpyrazin-2-yl)amino)cyclopentyl)amino)pyridin-3-yl)pyridazin-3 (2H)-one], the Kd in data set [1] worked out at 35 nM. Moreover, the IC50 in data set [5] is greater than 40100 nM; in data set [3] it was greater than 10 µM; in data set [4] it was 46 nM.
For `Cc1cnc(N[C@H]2CC[C@H](Nc3ccc(-n4nccc(C#N)c4=O)cn3)C2)cn1` [Example 278, 2-(6-(((1S,3S)-3-((5-Methylpyrazin-2-yl)amino)cyclopentyl)amino)pyridin-3-yl)-3-oxo-2,3-dihydropyridazine-4-carbonitrile], the dissociation constant Kd in data set [1] was found to be 12 nM. Also, the IC50 in data set [5] is greater than 40100 nM; in data set [3] it was greater than 10 µM; in data set [4] it was 13 nM.
alirocumab: the “decrease in LDL levels” value in data set [6] is “about 50%”.

(Values after patent US20240217951A1, “PCSK9 INHIBITORS AND METHODS OF USE THEREOF” (AstraZeneca AB, priority 2022, published 2024).)
